We go through 19 compounds from the supplement of paper PMC10949913.

What all share (assay): area under concentration-response curve (viability) (AUC (a.u.)); higher = less active
Holding throughout (settings): 48 h

One test relates to CU-ACC1. In outline:
(§1)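 Three adrenocortical carcinoma cell lines were exposed for 48 h to library compounds at 11 concentrations in 1,536-well plates, then read by CellTiter-Glo luminescence. Signals were scaled per plate against vehicle and empty-well controls. From fitted concentration-response curves of inhibitory or non-responding classes alone, AC50 and area under the curve were obtained.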

Another test deals with CU-ACC2. The procedure, abridged: as §1
In another test the test system is NCI-H295R. The procedure, abridged:
as §1

Structures are written as SMILES. “And” between values parts separate entries of the source, which are not always exact repeats. Equal values may be shown once.

As to `Cc1cc(C)cc(Oc2ccc(CNC(=O)[C@H](C)N)cc2C)c1`, the “area under concentration-response curve” value with CU-ACC1 came out at 478; in the test with CU-ACC2 it was 559; with NCI-H295R it was 509.
For `O=C1CCCC(=O)C1C(=O)c1ccc(C(F)(F)F)cc1[N+](=O)[O-]`, in that order: 565, 576 and 545.
The corresponding values for `CC(C)[C@H](O)C(=O)N[C@@H](C)C(=O)N[C@@H]1C(=O)N(C)CCc2ccccc21` are 522, 577 and 575.
On to `COC1=C(OCCCOC2=C(OC)C=C3C(=O)N4CC(=C)C[C@H]4\C=N/C3=C2)C=C5\N=C/[C@@H]6CC(=C)CN6C(=O)C5=C1`, for which the “area under concentration-response curve” value with CU-ACC1 was determined as 320; with CU-ACC2, 404; in the test with NCI-H295R, 444.
As for `N#Cc1ccc(C2CCCc3cncn32)cc1` (configuration not stated), the results for the “area under concentration-response curve” value with CU-ACC1, in the test with CU-ACC2 and with NCI-H295R were 503, 544 and 479, respectively.
`Nc1ncnc2c1ncn2[C@@H]1O[C@H](CO)[C@@H](O)[C@H]1O`: the “area under concentration-response curve” value in the test with CU-ACC1 came to 463; with CU-ACC2, 506; in the test on NCI-H295R, 470.
For `C[N]1C=C(C2=C1C=CC=C2)\C3=C(\C(=O)NC3=O)C4=C5CC(CN)CC[N]5C6=C4C=CC=C6` (configuration not stated), in that order: 517, 620 and 559.
The corresponding values for `CC(Oc1ccc(O)cc1)(P(=O)(O)O)P(=O)(O)O` are 456, 508 and 458.
For `CCC(=O)N1CCOc2c(cc(-c3cc(OC)cc(OC)c3)cc2C(=O)N[C@H]2CCCN(C)C2)C1`, the “area under concentration-response curve” value amounted to 500 in the test on CU-ACC1, 550 with CU-ACC2 and 463 in the test with NCI-H295R.
For `Cc1nc(-c2cccnc2)sc1C(=O)Nc1ccccc1-c1cn2c(CN3CCOCC3)csc2n1`, in that order: 454, 456 and 504.
As to `COC1=CC(=CC(=C1CN(C)C)OC)\C2=C\N(C)C(=O)C3=C2C=CN=C3`, the “area under concentration-response curve” value amounted to 500 in the test with CU-ACC1, 578 in the test on CU-ACC2 and 479 in the test with NCI-H295R.
For `COc1ccc(Nc2nccc(NCCO)n2)cc1`, in that order: 496, 578 and 517.
Regarding `CCC(CCCC)COC(=O)C(\C#N)=C(\c1ccccc1)c2ccccc2` (configuration not stated), the “area under concentration-response curve” value with CU-ACC1 was 540; with CU-ACC2, 667; in the test with NCI-H295R, 583.
For `CCC/1=C(/NC2=C(C=N[N]2C1=O)C#N)C3=CC=CC=C3C`, the “area under concentration-response curve” value was 550 and 493 in the test on CU-ACC1; 577 and 487 in the test with CU-ACC2; 552 and 522 in the test with NCI-H295R.
Consider `CCN1C(=O)\C(=C/C2=CN=C(NC3=CC=C(C=C3)N4CCN(C)CC4)N=C12)C5=C(Cl)C=C(C=C5)C6=CN=CS6`, for which the “area under concentration-response curve” value amounted to 562 with CU-ACC1, 604 in the test with CU-ACC2 and 568 with NCI-H295R.
On to `CCOC(=O)N1c2ccc(C(F)(F)F)cc2[C@@H](N(Cc2cc(C(F)(F)F)cc(C(F)(F)F)c2)C(=O)OC)C[C@H]1CC`, for which the “area under concentration-response curve” value is 502 with CU-ACC1, 636 in the test on CU-ACC2 and 533 in the test on NCI-H295R.
On to `CCC(C)CCCCC(=O)N[C@@H](CCN)C(=O)NC(C(=O)N[C@H](CCN)C(=O)N[C@@H]1CCNC(=O)C([C@@H](C)O)NC(=O)[C@@H](CCN)NC(=O)[C@@H](CCN)NC(=O)[C@@H](CC(C)C)NC(=O)[C@H](Cc2ccccc2)NC(=O)[C@H](CCN)NC1=O)[C@@H](C)O` (some centres not stated), for which the “area under concentration-response curve” value with CU-ACC1 was determined as 505; with CU-ACC2 it was 631; in the test with NCI-H295R it was 553.
`C[C@@H]1CN[C@H]2[C@@H](C)[C@@]\3(CC[C@H]\4[C@@H]5C/C=C6/C[C@@H](O)CC[C@]6(C)[C@H]5CC4=C3C)O[C@@H]2C1`: the entries for the “area under concentration-response curve” value with CU-ACC1, in the test with CU-ACC2 and in the test on NCI-H295R were 463, 433 and 511, respectively.
For `C[C@](Cc1c[nH]c2ccccc12)(NC(=O)OC1C2CC3CC(C2)CC1C3)C(=O)NC[C@H](NC(=O)CCC(=O)O)c1ccccc1` (some centres not stated), in that order: 510, 582 and 537.
